Values of other authors, collected in US9399044B2, “Antimicrobial cationic polyamines” (International Business Machines Corporation, priority 2014, dated 2016).

Test system: mouse
Details: commercially available compounds, source NIH

Structure (SMILES): CC[C@@H](CO)NCCN[C@@H](CC)CO [Ethambutol]
- Mouse Intravenous LD50: 240 mg/kg

Structure (SMILES): NNC(=O)c1ccncc1 [Isoniazid]
- Mouse Intravenous LD50: 149 mg/kg

Structure (SMILES): CN(Cc1cnc2nc(N)nc(N)c2n1)c1ccc(C(=O)N[C@@H](CCC(=O)O)C(=O)O)cc1 [Methotrexate]
- Mouse Intravenous LD50: 65 mg/kg

Structure (SMILES): CN1CCCC1c1cccnc1 (centres unmarked) [Nicotine]
- Mouse Intravenous LD50: 0.3 mg/kg

Structure (SMILES): CO[C@H]1/C=C/O[C@@]2(C)Oc3c(C)c(O)c4c(O)c(c(/C=N/N5CCN(C)CC5)c(O)c4c3C2=O)NC(=O)/C(C)=C\C=C\[C@H](C)[C@H](O)[C@@H](C)[C@@H](O)[C@@H](C)[C@H](OC(C)=O)[C@@H]1C [Rifampin]
- Mouse Intravenous LD50: 260 mg/kg
